Measured values as given in patent US11136432B2, “Method for producing polyisothianaphthene-based electroconductive polymer” (SHOWA DENKO K.K., priority 2016, dated 2021).

Assays:
[1] = Stability test after dissolution: visual observation of the solution; format: physicochemical; settings: in the air
Experimental: (§1) 1.0 g of benzo[c]thiophene-1,3-dihydro-2-oxide and 0.25 g of p-toluenesulfonic acid-hydrate (pTSA, molar ratio: 5/1) were dissolved in 11.0 g of each solvent (solid content: 10 mass %) in composition as shown in Table 3 in the air. The solution was visually observed immediately (early period), 24 hours, and one week after the dissolution.
as §1, with “1,3-dihydroisothianaphthene” for “benzo[c]thiophene-1,3-dihydro-2-oxide”, “0.28” for “0.25”, “11.3” for “11.0”, “4” for “3”
A part of the prepared aqueous solution was delivered by drops onto a glass plate, followed by heating and drying at 120° C. for 1 hour. The generated solid was black. The generation of polyisothianaphthene was confirmed from the measurement of the UV spectrum obtained by adding the product to water.
A part of the prepared solution was delivered by drops onto a glass plate, followed by heating and drying at 120° C. for 1 hour. The generated solid was black. The generation of polyisothianaphthene was confirmed from the measurement of the UV spectrum obtained by adding the product to water.

[2] = Solubility test: amount dissolved in 10 g of solvent, visually inspected; format: physicochemical
Experimental: Benzo[c]thiophene-1,3-dihydro-2-oxide was dissolved a little at a time in 10 g of a solvent, and the amount of dissolution was visually inspected.
1,3-dihydroisothianaphthene was dissolved a little at a time in 10 g of a solvent.

[3] = 4° C., DMSO, pTSA (molar ratio 5/1), solid content 10 mass %
[4] = 25° C., DMSO, pTSA (molar ratio 5/1), solid content 10 mass %
[5] = 25° C., EtOH, pTSA (molar ratio 5/1), solid content 10 mass %
[6] = 25° C., solvent None, catalyst None

Row | Compound | Visual observation After 1 week [1, 3] | Visual observation After 24 hours [1, 3] | Visual observation After 1 week [1, 4] | Visual observation After 24 hours [1, 4] | Visual observation After 1 week [1, 5] | Visual observation After 24 hours [1, 5] | Visual observation After 1 week [1, 6] | Visual observation After 24 hours [1, 6] | Dissolution amount ([2]; solvent: Dimethyl formamide) | Dissolution amount ([2]; solvent: Dimethyl sulfoxide) | Dissolution amount ([2]; solvent: Ethanol) | Dissolution amount ([2]; solvent: Ethylene glycol) | Dissolution amount ([2]; solvent: Isopropanol) | Dissolution amount ([2]; solvent: Methanol) | Dissolution amount ([2]; solvent: Water)
1 | c1ccc2c(c1)CSC2 [Comparative Example 1, 1,3-dihydroisothianaphthene] | Pale yellow | Pale yellow | Deep blue | Pale brown | Deep blue | Brownish red | Pale brown | Pale yellow | Soluble | Soluble | Soluble | Insoluble | Soluble | Slightly soluble | Insoluble
2 | [O-][S+]1Cc2ccccc2C1 [Example 1, benzo[c]thiophene-1,3-dihydro-2-oxide] |  |  |  |  |  |  |  |  | Soluble | Soluble | Soluble | Soluble | Soluble | Soluble | Soluble
